Data taken from patent US20110124086A1, “Hepatitis C Virus Culture System” (The Regents of the University of California, priority 2009, published 2011).

Tests used:
Assay type in all cases: cell-based, Hepatitis C virus
[1] = tested on: HCV of genotype 1b (CG1b); assay: Antiviral activity of IFNα in Huh7 cells infected with FH-CG1bRbz hepatocyte-derived medium, HCV RNA by qRT-PCR; settings: IFNα 100 U/ml once, 48 hrs after infection, analysed after 24 hrs
Description: Huh7 cells were infected with hepatocyte-derived medium. Then, after 48 hrs, cells were treated with 0 or 100 U/ml of IFNα once and analyzed for HCV RNA by qRT-PCR after 24 hrs. N.D. indicates not detectable or below the level of detection.
Huh7 human hepatoma cells were transfected with in vitro-transcribed JFH1 RNA and cultured, as previously described (Choi et al. (2004) Hepatology 39:91-9). Telomerase-reconstituted primary human hepatocytes were transfected with pEF-CG1 bRbz/Neo, pEF-CG1 bGNDRbz/Neo, or control EF-driven vector alone as described for Huh7, and cell clones that are stably transfected with these constructs were selected and maintained in G418-containing medium (Invitrogen) (Wege et al. (2004) Gastroenterology 124:432-44). For virus infection, the extracellular medium from JFH1-transfected cells and CG1b transfected cell clones was cleared by low speed centrifugation at 5,000 rpm for 10 min and concentrated ˜10 fold by ultracentrifugation at 21,000 rpm for 6.5 hrs at 4° C. The medium was also pre-treated with RNase (and also with DNase for CG1b medium) for 30 min at room temperature prior to these centrifugation steps. Then, the concentrated virus samples were used to inoculate naïve Huh7 or Huh7.5 cells (Wakita et al. (2005) Nat. Med. 11:791-6). […]
(§1) HCV RNA was quantified by quantitative reverse transcriptase polymerase chain reaction (qRT-PCR) as described. […]

[2] = tested on: HCV genotype 1b (CG1b) in FH-CG1bRbz cells; assay: Effect of PKR and Jak2 inhibitor on intracellular HCV RNA in FH-CG1bRbz cells, qRT-PCR; settings: C5 1 μM or Jak2 inhibitor II 10 and 50 μM, 48 or 96 hr incubation
Description: (§2) Cg1bRbz cells were treated with C5 (1 μM) or Jak2 inhibitor II (10 and 50 μM) for 48 or 96 hrs and analyzed for intracellular HCV RNAs by qRT-PCR. Huh7 cells transfected with JFH1 RNA were also used as a control. Bottom right—Huh7 cells were inoculated with virus samples prepared from control and Jak2 inhibitor II-treated later passage FH cell culture medium and analyzed for HCV RNA after 48 hrs by qRT-PCR.
HCV RNA was quantified by quantitative reverse transcriptase polymerase chain reaction (qRT-PCR) as described. Intracellular HCV RNA levels were normalized by glyceraldehydes 3-phosphate dehydrogenase mRNA content. Standard curves were generated using in vitro-transcribed HCV RNA's. Control reactions containing no reverse transcriptase were also carried out as controls. HCV protein levels were visualized by immunofluorescence staining followed by confocal microscopy. […]
(§3) It was then examined whether suppressing the hepatocyte innate immunity by inhibiting Jak/Stat pathway and/or PKR could increase the HCV titer in Applicants' FH cell clones and therefore, increase the infectivity of CG1b. HCV RNA level was analyzed in FH-CG1 bRbz cells after 48 or 96 hr incubation with C5, an inhibitor of PKR, or Jak2 Inhibitor II.

HCV genotype 1b (CG1b) = assay: HCV infectivity of medium from Jak2 inhibitor II-treated FH-CG1bRbz cells inoculated on Huh7 cells, HCV RNA by qRT-PCR; settings: HCV RNA after 48 hrs, later passage FH cell culture medium
Description: as §2
(§4) Huh7 human hepatoma cells were transfected with in vitro-transcribed JFH1 RNA and cultured, as previously described (Choi et al. (2004) Hepatology 39:91-9). Telomerase-reconstituted primary human hepatocytes were transfected with pEF-CG1 bRbz/Neo, pEF-CG1 bGNDRbz/Neo, or control EF-driven vector alone as described for Huh7, and cell clones that are stably transfected with these constructs were selected and maintained in G418-containing medium (Invitrogen) (Wege et al. (2004) Gastroenterology 124:432-44). […]
as §1, §3

[3] = tested on: JFH1 (HCV genotype 2a) in Huh7 cells; assay: Effect of PKR and Jak2 inhibitor on intracellular HCV RNA in Huh7 cells transfected with JFH1 RNA, qRT-PCR; settings: C5 1 μM or Jak2 inhibitor II 10 and 50 μM, 48 or 96 hrs
Description: as §2, §4, §1, §3

Row | Molecule | HCV titer (HCV RNA) in CG1b-infected Huh7 cells [1] | HCV titer (HCV RNA) in CG1b-infected Huh7 cells ([1]; listed as interferon alpha) | intracellular HCV RNA in FH-CG1bRbz cells [2] | HCV infectivity of medium from Jak2 inhibited FH-CG1bRbz cells compared to medium from control cells (HCV genotype 1b (CG1b)) | intracellular HCV RNA in Huh7 cells transfected with JFH1 RNA [3]
1 | interferon alpha [IFNα] | decreased HCV titer | decreased | – | – | –
2 | BrC1C(Br)C(Br)C(Br)C(Br)C1Br (centres unmarked) [Jak2 Inhibitor II] | – | – | intracellular HCV RNA increased | increased only modestly | an increase in the intracellular HCV RNA
